# Read-outs that look alike come from different tables or passages of the source.
# Target: T1, SIRT1 (Homo sapiens, UniProt Q96EB6)
# T1 sequence (Q96EB6 1-747): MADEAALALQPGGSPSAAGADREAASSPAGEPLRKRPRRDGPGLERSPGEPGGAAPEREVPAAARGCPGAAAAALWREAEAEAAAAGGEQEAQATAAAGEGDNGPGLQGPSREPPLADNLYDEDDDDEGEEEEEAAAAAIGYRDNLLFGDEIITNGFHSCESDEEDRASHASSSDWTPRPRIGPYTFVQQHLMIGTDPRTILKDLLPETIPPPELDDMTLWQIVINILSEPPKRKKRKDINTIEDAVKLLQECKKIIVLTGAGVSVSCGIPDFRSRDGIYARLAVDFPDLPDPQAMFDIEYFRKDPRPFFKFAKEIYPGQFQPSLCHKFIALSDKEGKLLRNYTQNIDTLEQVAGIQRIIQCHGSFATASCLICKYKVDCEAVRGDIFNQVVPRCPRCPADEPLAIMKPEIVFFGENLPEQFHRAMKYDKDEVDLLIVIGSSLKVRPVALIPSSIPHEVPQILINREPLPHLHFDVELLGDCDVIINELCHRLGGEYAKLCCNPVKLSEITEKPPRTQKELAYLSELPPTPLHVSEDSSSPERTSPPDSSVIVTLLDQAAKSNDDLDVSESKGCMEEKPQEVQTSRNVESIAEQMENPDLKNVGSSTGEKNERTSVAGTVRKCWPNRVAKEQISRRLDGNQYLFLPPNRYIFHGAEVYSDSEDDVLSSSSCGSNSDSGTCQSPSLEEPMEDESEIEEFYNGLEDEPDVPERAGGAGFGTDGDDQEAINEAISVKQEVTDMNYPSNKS
# Test: Trp mass spectrometry assay of SIRT1 activation (Ac-R-H-K-K(Ac)-W-NH2 peptide)
# Format: biochemical
# Details: for Emax: 25 min, read-out: TRP MAX RESP (percent maximum fold activation)
# Summary of the method: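 Mass spectrometry read-out (OAADPR formed, or deacetylated Trp peptide) after a 25 min NAD-dependent deacetylation by E. coli-expressed His-SIRT1, stopped with formic acid.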
# [1] = Trp peptide 0.5 μM, 120 μM βNAD+, 10 nM SIRT1, 25 min at 25° C., relative to control (100%)
# [2] = Trp peptide 0.5 μM, 120 μM βNAD+, 10 nM SIRT1, 25 min at 25° C.
Compound,Emax [1] [%],"TRP Activity (EC1.5, concentration of test compound that results in 150% activation of SIRT1) [2]",TRP MAX RESP (percent maximum fold activation) [1],Emax [%]
"C[C@@H](NC(=O)c1ccc2c(n1)N(C(=O)Nc1cc(C(N)=O)ccn1)[C@H]1CCN2C1)C(F)(F)F [Example 137, (4S)—N5-(4-carbamoylpyridin-2-yl)-N7-((R)-1,1,1-trifluoropropan-2-yl)-3,4-dihydro-1,4-methanopyrido[2,3-b][1,4]diazepine-5,7(2H)-dicarboxamide]",> 150,A (EC1.5<1 μM),–,–
"O=C(NCC(F)F)c1ccc2c(n1)N(C(=O)Nc1ccc(F)cn1)[C@H]1CCN2C1 [Example 69, (4S)—N7-(2,2-difluoroethyl)-N5-(5-fluoropyridin-2-yl)-3,4-dihydro-1,4-methanopyrido[2,3-b][1,4]diazepine-5,7(2H)-dicarboxamide]",–,A (EC1.5<1 μM),–,> 150
"NC(CNC(=O)c1ccc2c(n1)N(C(=O)Nc1ccccn1)[C@H]1CCN2C1)C(F)(F)F (single isomer, unassigned) [Example 49]",> 150,B (EC1.5 1-25 μM),–,–
"CC(C)c1ccc(NC(=O)N2c3nc(C(=O)NCC(F)(F)F)ccc3N3CC[C@H]2C3)nc1 [Example 172, (4S)—N5-(5-isopropylpyridin-2-yl)-N7-(2,2,2-trifluoroethyl)-3,4-dihydro-1,4-methanopyrido[2,3-b][1,4]diazepine-5,7(2H)-dicarboxamide]",> 150,A (EC1.5<1 μM),–,–
"C[C@@H](NC(=O)c1ccc2c(n1)N(C(=O)Nc1cc(OC[C@@H](O)CO)ncn1)[C@H]1CCN2C1)C(F)(F)F [Example 162, (4S)—N5-(6-((S)-2,3-dihydroxypropoxy)pyrimidin-4-yl)-N7-((R)-1,1,1-trifluoropropan-2-yl)-3,4-dihydro-1,4-methanopyrido[2,3-b][1,4]diazepine-5,7(2H)-dicarboxamide]",> 150,A (EC1.5<1 μM),–,–
"C[C@@H](NC(=O)c1ccc2c(n1)N(C(=O)Nc1cc(OC[C@H](O)CO)ccn1)[C@H]1CCN2C1)C(F)(F)F [Example 74, (4S)—N5-(4-((R)-2,3-dihydroxypropoxy)pyridin-2-yl)-N7-((R)-1,1,1-trifluoropropan-2-yl)-3,4-dihydro-1,4-methanopyrido[2,3-b][1,4]diazepine-5,7(2H)-dicarboxamide]",> 150,–,–,–
"Cc1ncc(-c2ccnc(NC(=O)N3c4nc(C(=O)NCC(F)(F)F)ccc4N4CC[C@H]3C4)c2)o1 [Example 115, (4S)—N5-(4-(2-methyloxazol-5-yl)pyridin-2-yl)-N7-(2,2,2-trifluoroethyl)-3,4-dihydro-1,4-methanopyrido[2,3-b][1,4]diazepine-5,7(2H)-dicarboxamide]",> 150,A (EC1.5<1 μM),–,–
"CN(C)NC(=O)c1ccc2c(n1)N(C(=O)Nc1ccccn1)[C@H]1CCN2C1 [Example 201, (4S)-7-(2,2-dimethylhydrazinecarbonyl)-N-(pyridin-2-yl)-3,4-dihydro-1,4-methanopyrido[2,3-b][1,4]diazepine-5(2H)-carboxamide]",–,B (EC1.5 1-25 μM),–,> 150
"CC(CO)NC(=O)c1ccc2c(n1)N(C(=O)Nc1ccccn1)[C@H]1CCN2C1 (stereo partly drawn) [Example 10, (4S)—N-7-(1-hydroxypropan-2-yl)-N-5-(pyridin-2-yl)-3,4-dihydro-1,4-methanopyrido [2,3-b] [1, 4] diazepine-5, 7(2H)-dicarboxamide]",> 150,B (EC1.5 1-25 μM),–,–
"O=C(NCc1cccc(F)c1)c1ccc2c(n1)N(C(=O)Nc1cc(OC[C@H](O)CO)ccn1)[C@H]1CCN2C1 [Example 187, (4S)—N5-(4-((R)-2,3-dihydroxypropoxy)pyridin-2-yl)-N7-(3-fluorobenzyl)-3,4-dihydro-1,4-methanopyrido[2,3-b][1,4]diazepine-5,7(2H)-dicarboxamide]",> 150,A (EC1.5<1 μM),–,–
"O=C(NCCC(F)(F)F)c1ccc2c(n1)N(C(=O)Nc1ccccn1)[C@H]1CCN2C1 [Example 124, (4S)—N5-(pyridin-2-yl)-N7-(3,3,3-trifluoropropyl)-3,4-dihydro-1,4-methanopyrido[2,3-b][1,4]diazepine-5,7(2H)-dicarboxamide]",> 150,A (EC1.5<1 μM),–,–

# The next lines start with results.
Emax [1] [%],"TRP Activity (EC1.5, concentration of test compound that results in 150% activation of SIRT1) [2]",TRP MAX RESP (percent maximum fold activation) [1],Compound,Emax [%]
< 150,A (EC1.5<1 μM),–,"C#Cc1ccnc(NC(=O)N2c3nc(C(=O)N[C@H](C)C(F)(F)F)ccc3N3CC[C@H]2C3)c1 [Example 299, (4S)—N5-(4-ethynylpyridin-2-yl)-N7-((R)-1,1,1-trifluoropropan-2-yl)-3,4-dihydro-1,4-methanopyrido[2,3-b][1,4]diazepine-5,7(2H)-dicarboxamide]",–
> 150,A (EC1.5<1 μM),–,"C[C@@H](NC(=O)c1ccc2c(n1)N(C(=O)Nc1cnc(OC[C@H](O)CO)cn1)[C@H]1CCN2C1)C(F)(F)F [Example 194, (4S)—N5-(5-((R)-2,3-dihydroxypropoxy)pyrazin-2-yl)-N7-((R)-1,1,1-trifluoropropan-2-yl)-3,4-dihydro-1,4-methanopyrido[2,3-b][1,4]diazepine-5,7(2H)-dicarboxamide]",–
–,B (EC1.5 1-25 μM),A (Fold activation≥150%),"O=C(NC(CCO)C(F)(F)F)c1ccc2c(n1)N(C(=O)Nc1ccccn1)[C@H]1CCN2C1 (single isomer, unassigned) [Example 248]",–
> 150,B (EC1.5 1-25 μM),–,"Cn1ncc2c(NC(=O)N3c4nc(C(=O)NCC(F)(F)F)ccc4N4CC[C@H]3C4)cccc21 [Example 220, (4S)—N5-(1-methyl-1H-indazol-4-yl)-N7-(2,2,2-trifluoroethyl)-3,4-dihydro-1,4-methanopyrido[2,3-b][1,4]diazepine-5,7(2H)-dicarboxamide]",–
> 150,A (EC1.5<1 μM),–,"Cc1nc(NC(=O)N2c3nc(C(=O)N[C@H](C)C(F)(F)F)ccc3N3CC[C@H]2C3)ccc1F [Example 269, (4S)—N5-(5-fluoro-6-methylpyridin-2-yl)-N7-((R)-1,1,1-trifluoropropan-2-yl)-3,4-dihydro-1,4-methanopyrido[2,3-b][1,4]diazepine-5,7(2H)-dicarboxamide]",–
> 150,A (EC1.5<1 μM),–,"O=C(NC1CC(F)(F)C1)c1ccc2c(n1)N(C(=O)Nc1ccccn1)[C@H]1CCN2C1 [Example 246, (4S)—N7-(3,3-difluorocyclobutyl)-N5-(pyridin-2-yl)-3,4-dihydro-1,4-methanopyrido[2,3-b][1,4]diazepine-5,7(2H)-dicarboxamide]",–
–,B (EC1.5 1-25 μM),B (Fold Activation<150%),"O=C(NC1CC1(F)F)c1ccc2c(n1)N(C(=O)Nc1cc(OC[C@H](O)CO)ccn1)[C@H]1CCN2C1 (single isomer, unassigned) [Example 306]",–

# — US10072011B2, “Substituted bridged urea analogs as sirtuin modulators” (GlaxoSmithKline Intellectual Property (No.2) Limited, priority 2014, dated 2018)
